{"source": "patent US11470828B2", "about": "“Rodent model of mood disorders” (REGENERON PHARMACEUTICALS, INC., priority 2019, dated 2022)", "test_system": "GPR156^E533D/E533D mice", "settings": "for Effect on impaired swim phenotype (ability to perform 6-minute swim test): GPR156^E533D/E533D mice, Fluoxetine 10 mg/kg i.p. daily for 9 weeks", "description": "Mice were placed in a 5 liter clear plastic beaker (25×18 cm diameter) filled with 4 liters of 23-25° C. tap water to ensure mice cannot touch the bottom of the flask even with their tail. Four animals were recorded simultaneously using an ANY-maze™ video-tracking system (Stoelting Co.). Data were recorded for 6 minutes. Flask were separated by 3 sided white plastic partitions (40 cm high×25 cm wide). Swim test was recorded for 6 minutes. Recordings were set up to start automatically if there was motion in the flask so that recorded times are specific for each individual mouse.\nThe 6 minutes recording was broken into three time segments (0-100 seconds, 101-200 second and last […]) to get a better sampling of behaviors across time.\nMain data points analyzed for the FST were swim time, time mobile, time immobile, speed, distance traveled, rearing in the swim zone, mobile episodes and immobile episodes. Immobility is defined as 60% of total body mass being immobile for 2 seconds. This parameter allows for small movements of hind legs and feet to maintain balance and or to tread water without be considered actively swimming.\nMice were tested for a 6 minute forced swim test weekly before and after daily treatment with intraperitoneal injection of Fluoxetine 10 mg/kg for […]. Total time of swim test seconds) before and after daily treatment with Fluoxetine was recorded. […] Data were expressed as mean±SEM for each animal group.\nTo test whether Fluoxetine could reverse the impaired swim test phenotype, GPR156^hum/hum and GPR156^E533D/E533D mice were treated with Fluoxetine 10 mg/kg (i.p) daily for 6 days/week for 9 weeks. […] Therefore, mice were subjected to a swim test (baseline) and animals able to perform the 6 minutes swim test were excluded from the study. The remaining mice were then split into 2 groups, treated and untreated with Fluoxetine.\nFor this study, mice were subjected to a swim test (baseline) and animals able to perform the 6 minutes swim test were excluded from the study.", "note": "Several values for one entry are separate records, joined by “and”; a condition that tells them apart may be missing. Identical values can stand only once. Like-named read-outs stand apart in the source and are kept apart here."}
{"compound": "CNCCC(Oc1ccc(C(F)(F)F)cc1)c1ccccc1", "note": "(stereo not drawn) [Fluoxetine]", "values": [{"measurement": "Percentage of mice achieving the swim test", "setting": "GPR156^E533D/E533D mice (0/13 at baseline), Fluoxetine 10 mg/kg i.p. daily 6 days/week, after 9 weeks, males and females combined", "value": "53% and 61%"}, {"measurement": "Effect on impaired swim phenotype (ability to perform 6-minute swim test)", "value": "improves the impaired swim phenotype"}, {"measurement": "Effect on impaired swim phenotype (ability to perform 6-minute swim test)", "setting": "listed as fluoxetine", "value": "improved on their ability to perform the swim test"}, {"measurement": "Percentage of females able to successfully perform the 6 minutes swim test", "setting": "female mice homozygous for E533D, Fluoxetine 10 mg/kg i.p. daily, after 4 weeks (5 out of 10)", "value": 50, "unit": "%"}, {"measurement": "Percentage of GPR156^E533D/E533D mice that achieved the test", "setting": "following 4-9 weeks of treatment with Fluoxetine 10 mg/kg, i.p., daily, none able prior to treatment", "value": "Fluoxetine (10 mg/kg, i.p., daily), 53%"}, {"measurement": "Percentage of males able to successfully perform the 6 minutes swim test", "setting": "male mice homozygous for E533D, Fluoxetine 10 mg/kg i.p. daily, after 4 weeks (5 out of 8)", "value": 62.5, "unit": "%"}]}
